From PubChem BioAssay AID651630 (Sanford-Burnham Center for Chemical Genomics, 2012) come the findings set out here.

pIC50: −log10 of the molar value. Calls of active or inactive are those of the source.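 How the source made its calls: active means lipid-stain IC50 at or below a set limit, with nuclear-stain toxicity IC50 at least five times higher; inactive means the rest.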 Where only a bound is given, the exact number is not on record here.

For one assay, the system named is DAPI. The assay is described as follows: triacylglycerol accumulation inhibitor potency, dose response, cell-based, panel, Nile Red and DAPI fluorescence, H9c2 (AID 651630).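 Further: cells exposed to compound overnight before fixation and staining.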 To be noted: H9c2 cells, DAPI nuclear fluorescence (cytotoxicity counter-readout), oleic acid.
Another assay concerns TAG. The assay is described as above. To be noted: H9c2 cells, Nile Red TAG fluorescence, oleic acid.

As usually defined, the IC50 is the concentration at which inhibition is half-maximal. The pIC50 is the IC50 on a negative log10 scale, so that one unit is a factor of ten.

Consider `O=C(CC1C[C@H](C(=O)N2CCOCC2)[C@@]2(CCC3CCCC3)c3[nH]c4ccccc4c3CCN2C1=O)NCC12CC3CC(CC(C3)C1)C2` (stereo partly specified), for which the IC50 cytotoxicity (DAPI nuclear signal decrease) in the assay on DAPI (mean of runs) is > 25 µM (inactive); in the assay with DAPI (run 1), more than 25 µM; in the assay with DAPI (run 2) it was more than 25 µM. Besides, the IC50 in the assay with TAG (mean of runs) is > 25 µM (inactive). Moreover, the pIC50 with TAG (run 1) and in the assay with TAG (run 2) was less than 4.60 in each case.
For the molecule `COc1cccc(C2c3cc4c(cc3OC(NNC(N)=O)C2C)OCO4)c1O` (stereo unspecified), the IC50 cytotoxicity (DAPI nuclear signal decrease) with DAPI (mean of runs) was > 25 µM (inactive); with DAPI (run 1) it was more than 25 µM; in the assay with DAPI (run 2), more than 25 µM. Besides, the IC50 in the assay on TAG (mean of runs) is > 25 µM (inactive). Also, the pIC50 in the assay on TAG (run 1) and in the assay with TAG (run 2) was less than 4.60 each time.
With `Cc1onc(-c2ccc(Cl)cc2Cl)c1-c1csc(N/N=C/c2ccccc2)n1`, the IC50 cytotoxicity (DAPI nuclear signal decrease) with DAPI (mean of runs) was > 25 µM (inactive); with DAPI (run 1), more than 25 µM; in the assay with DAPI (run 2), more than 25 µM. Further, the IC50 with TAG (mean of runs) was > 25 µM (inactive). For the same molecule, the pIC50 with TAG (run 1) and in the assay on TAG (run 2) was less than 4.60 in each case.
Turning to `O=C1N=C(N2CCOCC2)S/C1=C/c1ccc(-c2ccc(F)cc2)o1`, the IC50 cytotoxicity (DAPI nuclear signal decrease) in the assay with DAPI (mean of runs) is > 25 µM (inactive); in the assay on DAPI (run 1), more than 25 µM; in the assay with DAPI (run 2) it was more than 25 µM. The IC50 in the assay on TAG (mean of runs) was 19.7 µM (inactive). For the same molecule, the figures for the pIC50 in the assay on TAG (run 1) and in the assay on TAG (run 2) were 4.73 and 4.68, respectively.
As for `CC(C)(C)NC(=O)C(c1ccc(-c2ccccc2)cc1)N(C[C@H]1CC[C@@H]([C@@H]2CC[C@H](CO)O2)O1)C(=O)c1ccc(-c2ccccc2)cc1` (stereo partly specified), the IC50 cytotoxicity (DAPI nuclear signal decrease) is > 25 µM (inactive) with DAPI (mean of runs), more than 25 µM in the assay with DAPI (run 1) and more than 25 µM with DAPI (run 2). The pIC50 is 4.86 in the assay on TAG (mean of runs), 4.91 with TAG (run 1) and 4.81 in the assay with TAG (run 2).
`COc1cc(-c2cc(NC=O)c3ncc(-c4cccc(C(=O)N(C)C)c4)n3c2)cc(OC)c1OC`: the results for the IC50 cytotoxicity (DAPI nuclear signal decrease) in the assay with DAPI (mean of runs), with DAPI (run 1) and with DAPI (run 2) were > 25 µM (inactive), more than 25 µM and more than 25 µM, respectively. Also, the pIC50 is 5.05 in the assay on TAG (mean of runs), 5.30 with TAG (run 1) and 4.90 in the assay on TAG (run 2).
For the molecule `C=CCn1c(SCc2c(C)noc2C)nc2sc3c(c2c1=O)CCC(C)C3` (stereo unspecified), the IC50 cytotoxicity (DAPI nuclear signal decrease) was > 25 µM (inactive) in the assay on DAPI (mean of runs), more than 25 µM with DAPI (run 1) and more than 25 µM with DAPI (run 2). In addition, the IC50 in the assay with TAG (mean of runs) was > 25 µM (inactive). Further, the pIC50 in the assay on TAG (run 1) and with TAG (run 2) was less than 4.60 in each case.
Turning to `CCC(C)(C)NC(=O)C(c1ccc(OC)cc1)N(Cc1cccs1)C(=O)CCC(=O)Nc1cc(C)on1` (stereo unspecified), the IC50 cytotoxicity (DAPI nuclear signal decrease) in the assay on DAPI (mean of runs) was > 25 µM (inactive); with DAPI (run 1) it was more than 25 µM; in the assay on DAPI (run 2) it was more than 25 µM. Besides, the figures for the pIC50 in the assay on TAG (mean of runs), with TAG (run 1) and with TAG (run 2) were 4.88, 4.88 and 4.87, respectively.
Turning to `CC(C)N(C(=O)[C@H]1C[C@H](CC(=O)NCc2cccc(C(F)(F)F)c2)C(=O)N2CCc3c([nH]c4ccc(Cl)cc34)[C@]12C)C(C)C`, the IC50 cytotoxicity (DAPI nuclear signal decrease) in the assay with DAPI (mean of runs) is > 25 µM (inactive); in the assay on DAPI (run 1), more than 25 µM; with DAPI (run 2) it was more than 25 µM. Further, the pIC50 is 4.97 in the assay with TAG (mean of runs), 5.01 in the assay on TAG (run 1) and 4.94 in the assay on TAG (run 2).
In the case of `CCOC(=O)c1c(CN2CCNCC2)nc2ccc(Cl)cc2c1-c1ccccc1`, the IC50 cytotoxicity (DAPI nuclear signal decrease) was 16.8 µM (inactive) with DAPI (mean of runs), 17.1 µM with DAPI (run 1) and 16.5 µM in the assay on DAPI (run 2). In addition, the IC50 in the assay with TAG (mean of runs) is > 25 µM (inactive). Besides, the pIC50 in the assay on TAG (run 1) and in the assay on TAG (run 2) was less than 4.60 each time.
Turning to `CCOc1ccc2nc(NC(=O)CN3CCC(n4nnc5cc(F)ccc54)CC3)sc2c1`, the IC50 cytotoxicity (DAPI nuclear signal decrease) was > 25 µM (inactive) with DAPI (mean of runs), more than 25 µM with DAPI (run 1) and more than 25 µM in the assay with DAPI (run 2). The IC50 with TAG (mean of runs) was 21.3 µM (inactive). Further, the pIC50 in the assay on TAG (run 1) is 4.75; in the assay on TAG (run 2) it was 4.61.
On to `COc1ccc(CNC(=O)C[C@H]2C[C@H](C(=O)N3CCCCC3)[C@@]3(CCc4ccccc4)c4[nH]c5ccc(Cl)cc5c4CCN3C2=O)cc1OC`, for which the IC50 cytotoxicity (DAPI nuclear signal decrease) in the assay on DAPI (mean of runs) is > 25 µM (inactive); with DAPI (run 1), more than 25 µM; with DAPI (run 2), more than 25 µM. For the same molecule, the pIC50 in the assay on TAG (mean of runs) is 5.00; in the assay on TAG (run 1) it was 5.02; in the assay on TAG (run 2) it was 4.98.
For `N#CC1C=Cc2c(ccc3ccccc23)N1C(=O)c1ccccc1` (stereo unspecified), the IC50 cytotoxicity (DAPI nuclear signal decrease) in the assay with DAPI (mean of runs) was > 25 µM (inactive); in the assay on DAPI (run 1), more than 25 µM; in the assay with DAPI (run 2), more than 25 µM. Also, the IC50 in the assay on TAG (mean of runs) is > 25 µM (inactive). Besides, the pIC50 with TAG (run 1) and in the assay on TAG (run 2) was less than 4.60 throughout.
As for `CCOC(=O)c1c(NC(C)=O)sc2c(OCC(O)CN(CC)CC)c(Br)ccc12` (stereo unspecified), the results for the IC50 cytotoxicity (DAPI nuclear signal decrease) in the assay with DAPI (mean of runs), with DAPI (run 1) and in the assay with DAPI (run 2) were > 25 µM (inactive), more than 25 µM and more than 25 µM, respectively. Also, the values for the pIC50 in the assay with TAG (run 1) and in the assay with TAG (run 2) were less than 4.60 and 4.66, respectively.
In the case of `COc1ccc(NC(=O)O[C@@H](C)[C@@H]2CN3CCc4c([nH]c5ccc(-c6ccc(OC)cc6)cc45)[C@@H]3C[C@@H]2N(C)C(=O)Nc2ccc(OC)cc2)cc1`, the IC50 cytotoxicity (DAPI nuclear signal decrease) in the assay on DAPI (mean of runs) is > 25 µM (inactive); in the assay with DAPI (run 1) it was more than 25 µM; with DAPI (run 2), more than 25 µM. The pIC50 with TAG (mean of runs) was 5.09; with TAG (run 1), 5.12; in the assay with TAG (run 2), 5.07.
As for `CCCCC(=NCCc1c(C)[nH]c2ccc(OC)cc12)C1=C(O)CC(c2ccccc2)CC1=O` (stereo unspecified), the results for the IC50 cytotoxicity (DAPI nuclear signal decrease) in the assay with DAPI (mean of runs), in the assay with DAPI (run 1) and with DAPI (run 2) were > 25 µM (inactive), more than 25 µM and more than 25 µM, respectively. Besides, the values for the pIC50 in the assay with TAG (run 1) and with TAG (run 2) were 4.79 and less than 4.60, respectively.
For `Cc1cc(Nc2ccc(C)c(Cl)c2)nc(N2CCOCC2)n1`, the values for the IC50 cytotoxicity (DAPI nuclear signal decrease) with DAPI (mean of runs), with DAPI (run 1) and in the assay with DAPI (run 2) were > 25 µM (inactive), more than 25 µM and more than 25 µM, respectively. For the same molecule, the IC50 with TAG (mean of runs) was > 25 µM (inactive). For the same molecule, the pIC50 in the assay with TAG (run 1) and with TAG (run 2) was less than 4.60 throughout.
With `COc1cc(Cn2c(-c3nonc3N)nc3ccccc32)ccc1C`, the IC50 cytotoxicity (DAPI nuclear signal decrease) was > 25 µM (inactive) with DAPI (mean of runs), more than 25 µM in the assay with DAPI (run 1) and more than 25 µM in the assay with DAPI (run 2). For the same molecule, the pIC50 with TAG (run 1) is 4.61; in the assay with TAG (run 2) it was less than 4.60.
As to `CCOc1ccccc1NC(=O)CCC(=O)Nc1ccccc1OCC`, the IC50 cytotoxicity (DAPI nuclear signal decrease) in the assay with DAPI (mean of runs) is > 25 µM (inactive); in the assay with DAPI (run 1), more than 25 µM; in the assay with DAPI (run 2), more than 25 µM. For the same molecule, the IC50 in the assay with TAG (mean of runs) was > 25 µM (inactive). Further, the negative-log IC50 (pIC50) in the assay with TAG (run 1) and in the assay on TAG (run 2) was less than 4.60 throughout.
